Read-outs that look alike come from different tables or passages of the source.
Tests used:
human CK2 holoenzyme [1] = molecular target: T1, human CK2 holoenzyme (Homo sapiens, UniProt P68400); conditions: recombinant human CK2, compounds published before, cited from earlier work; for Tested pIC50: pIC50 = -logIC50
T1 construct: made in house; host or cells: Escherichia coli

human CK2 holoenzyme [2] = molecular target: T1, human CK2 holoenzyme; experiment: biochemical; conditions: newly synthesized indeno[1,2-b]indoles
MCF-7 cells = experiment: MTT cell viability assay; assay type: cell-based, human; conditions: for reduction of cell viability: after 24 h and 48 h
Protocol: The effect of the four naphtho[2,3-b]furan-4,9-dione derivatives on cell viability was evaluated using an MTT assay with MCF-7 cells (human breast adenocarcinoma cell line). […]. It is important to note that some compounds with a naphtho[2,3-b]furan-4,9-dione backbone are known to have anticancer effects and are highly cytotoxic, and other natural naphtho[2,3-b]furan-4,9-dione derivatives, which are found in the lapacho (Tabebuia) tree, are known to have different biological activities, such as antibacterial, antifungal, anti-inflammatory, and antitumor activities.
Bars represent the mean values of three measurements (n = 3). Error bars illustrate the corresponding standard deviations (± SD).
The effect of CK2 inhibitors on the viability of MCF-7 cells was evaluated using an MTT assay. MCF-7 breast cancer cells (kindly provided by the Department of Clinical Radiology of the University Hospital Muenster, Germany) were cultured in RPMI 1640 medium containing GlutaMax (Life Technologies, Darmstadt, Germany) and 10% fetal calf serum. The MTT assay was performed in 96-well plates. Cells were seeded at a density of 1 × 10^5 cells per well, then incubated […] at 37 °C in a humidified atmosphere (5% CO2). After overnight incubation, the seeding medium was removed and replaced with fresh medium containing the inhibitor at 0.01, 0.1, 1, and 10 μM. DMSO at a final concentration of 1% served as a control. Afterward, the MTT reagent (Sigma Aldrich, Darmstadt, Germany) was added at a final concentration of 0.5 mg/mL. After incubation for 2 h at 37 °C, the medium was discarded and 200 µL DMSO was added for the solubilization of the formazan. After mixing, the absorption was determined at 570 nm with a reference wavelength of 630 nm using a microplate reader. CK2 inhibitors were tested in triplicate, and the experiments were repeated three times.

[3] = Tested pIC50, recombinant human CK2, pIC50 = -logIC50
[4] = Tested IC50, recombinant human CK2
[5] = recombinant human CK2, read-out: Tested IC50
[6] = recombinant human CK2, pIC50 = -logIC50, read-out: Tested pIC50 (converted)

T1 sequence (P68400 whole entry): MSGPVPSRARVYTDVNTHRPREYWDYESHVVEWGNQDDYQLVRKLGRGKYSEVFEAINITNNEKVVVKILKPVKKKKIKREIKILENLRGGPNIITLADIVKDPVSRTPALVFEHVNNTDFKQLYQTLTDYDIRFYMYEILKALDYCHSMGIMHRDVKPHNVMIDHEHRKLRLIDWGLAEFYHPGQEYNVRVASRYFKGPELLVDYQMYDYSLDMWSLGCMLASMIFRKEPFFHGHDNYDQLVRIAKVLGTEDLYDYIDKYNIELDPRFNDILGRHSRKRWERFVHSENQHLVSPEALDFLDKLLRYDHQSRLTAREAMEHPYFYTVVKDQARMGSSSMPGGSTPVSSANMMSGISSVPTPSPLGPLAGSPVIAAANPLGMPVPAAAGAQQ
T1 sequence (P67870 whole entry partner): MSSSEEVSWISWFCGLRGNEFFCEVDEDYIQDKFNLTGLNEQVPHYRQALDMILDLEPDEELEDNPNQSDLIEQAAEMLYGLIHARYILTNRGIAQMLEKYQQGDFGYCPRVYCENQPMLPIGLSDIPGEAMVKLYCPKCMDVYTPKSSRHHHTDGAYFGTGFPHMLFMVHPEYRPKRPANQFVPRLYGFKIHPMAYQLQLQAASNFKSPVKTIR

SMILES: COc1ccccc1CCn1c2c(c3c1-c1ccccc1C3=O)C(=O)CCC2 [4e]
- IC50 (human CK2 holoenzyme [1]; read-out: Tested IC50): 1.4 µM
- Tested pIC50 (human CK2 holoenzyme [1]): 5.8540

SMILES: Cc1cccc2c1C(=O)c1c3c(n(C(C)C)c1-2)CCCC3=O [4h, 5-isopropyl-1-methyl-5,6,7,8-tetrahydroindeno[1,2-b]indole-9,10-dione]
- IC50 (human CK2 holoenzyme [2]; [3]): 0.11 µM
- melting point: 235 °C

SMILES: CC(C)n1c2c(c3c1-c1cccc(C(F)(F)F)c1C3=O)C(=O)CCC2 [4i]
- IC50 (human CK2 holoenzyme [2]; [3]): 0.21 µM

SMILES: CC(C)n1c2c(c3c1-c1cccc(Br)c1C3=O)C(=O)CCC2 [4j]
- IC50 (human CK2 holoenzyme [2]; [3]): 0.14 µM

SMILES: COC(=O)COc1ccc2c(c1)-c1c(c3c(n1C(C)C)CCCC3=O)C2=O [4p]
- IC50 (human CK2 holoenzyme [2]; [4]): 1.52 µM
- IC50 (human CK2 holoenzyme [2]; [3]): 1.52 µM

SMILES: CC(=O)Oc1ccc2c(c1)-c1c(c3c(n1C(C)C)CCCC3=O)C2=O [4q]
- IC50 (human CK2 holoenzyme [2]; [4]): 3.21 µM
- IC50 (human CK2 holoenzyme [2]; [3]): 3.21 µM

SMILES: COC(=O)CCCOc1ccc2c(c1)-c1c(c3c(n1C(C)C)CCCC3=O)C2=O [4r]
- IC50 (human CK2 holoenzyme [2]; [3]): 0.52 µM

SMILES: CC(C)n1c2c(c3c1-c1cc(OCCCC(=O)O)ccc1C3=O)C(=O)CCC2 [4s]
- IC50 (human CK2 holoenzyme [2]; [3]): 1.51 µM

SMILES: CC(C)n1c2c(c3c1-c1cc(Br)cc(Br)c1C3=O)C(=O)CCC2 [4w, 1,3-dibromo-5-isopropyl-5,6,7,8-tetrahydroindeno[1,2-b]indole-9,10-dione]
- IC50 (human CK2 holoenzyme [2]; [3]): 0.11 µM
- melting point: 276 °C

SMILES: CC(C)C1CC(=O)c2c3c(n(C(C)C)c2C1)-c1ccccc1C3=O (centres unmarked) [4y]
- Tested pIC50 (human CK2 holoenzyme [1]): 6.2150

SMILES: O=C1c2ccccc2-c2[nH]c3cccc(O)c3c21 [5a]
- IC50 (human CK2 holoenzyme [2]; [5]): 2.22 µM
- IC50 (human CK2 holoenzyme [2]; [6]): 2.22 µM

SMILES: O=c1ccc(=O)c2c1[nH]c1c3ccccc3c(=O)c12 [6a]
- IC50 (human CK2 holoenzyme [2]; [5]): 1.78 µM
- IC50 (human CK2 holoenzyme [2]; [6]): 1.78 µM

SMILES: Cn1c2c(=O)ccc(=O)c2c2c(=O)c3ccccc3c21 [6b]
- IC50 (human CK2 holoenzyme [2]; [4]): 1.12 µM
- IC50 (human CK2 holoenzyme [2]; [3]): 1.12 µM

SMILES: CCn1c2c(=O)ccc(=O)c2c2c(=O)c3ccccc3c21 [6c]
- IC50 (human CK2 holoenzyme [2]; [5]): 1.58 µM

SMILES: CC(C)n1c2c(=O)ccc(=O)c2c2c(=O)c3c(Br)cccc3c21 [6d]
- IC50 (human CK2 holoenzyme [2]; [5]): 1.35 µM
- IC50 (human CK2 holoenzyme [2]; [6]): 1.35 µM

SMILES: COc1ccc2c(=O)c3c4c(=O)ccc(=O)c4n(C(C)C)c3c2c1 [6e]
- IC50 (human CK2 holoenzyme [2]; [4]): 4.16 µM
- IC50 (human CK2 holoenzyme [2]; [3]): 4.16 µM

SMILES: COc1cccc2c(=O)c3c4c(=O)ccc(=O)c4n(C(C)C)c3c12 [6f]
- IC50 (human CK2 holoenzyme [2]; [5]): 0.87 µM
- IC50 (human CK2 holoenzyme [2]; [6]): 0.871 µM

SMILES: Cc1cc(=O)c2c3c(=O)c4ccccc4c3n(C(C)C)c2c1=O [6g]
- Tested pIC50 (human CK2 holoenzyme [1]): 6.3660

SMILES: Cc1oc2c(c1C(=O)NCCC(C)C)C(=O)c1ccccc1C2=O [compound 00082235, N-isopentyl-2-methyl-4,9-dioxo-4,9-dihydronaphtho[2,3-b]furan-3-carboxamide]
- reduction of cell viability (MCF-7 cells; MCF-7, 10 µM): more than 90%

SMILES: Cc1oc2c(c1C(=O)N1CCOCC1)C(=O)c1ccccc1C2=O [compound 01236034, 2-methyl-3(morpholine-4-carbonyl)naphto[2,3-b] furan-4,9-dione]
- cell viability reduced to (MCF-7 cells; MCF-7, 10 µM, after 48 h): 60%

SMILES: Cc1oc2c(c1C(=O)NCCCn1ccnc1)C(=O)c1ccccc1C2=O [compound 01893208, 1-(3-(2-methyl-4,9-dioxo-4,9-dihydronaphtho[2,3-b]furan-3-carboxamido)propyl)-1H-imidazol-3-ium]
- reduction of cell viability (MCF-7 cells; MCF-7, 1 µM): around 90%
- reduction of cell viability (MCF-7 cells; MCF-7, 10 µM): more than 90%

SMILES: Cc1oc2c(c1C(=O)NCc1cccnc1)C(=O)c1ccccc1C2=O [compound 37867960, 2-methyl-4,9-dioxo-N-(pyridin-3-ylmethyl)-4,9-dihydronaphtho[2,3-b]furan-3-carboxamide]
- reduction of cell viability (MCF-7 cells; MCF-7, 1 µM): around 90%
- reduction of cell viability (MCF-7 cells; MCF-7, 10 µM): more than 90%

Source: paper PMC6982966 (Molecules, 2019)
